Reference: the NIST ThermoML archive (doi:10.1016/j.jct.2011.02.018)
Numbers after ± are expanded uncertainties.

Experiment: xn = mol fraction of the nth substance listed
Conditions: 101 kPa, Liquid; for viscosity: Concentric cylinders viscometry; for mass density: Vibrating tube method

COC(C)(C)C [2-methoxy-2-methylpropane] + CCCO
Conditions	mass density, 293.15 K [kg/m3]	mass density, 298.15 K [kg/m3]	viscosity, 293.15 K [mPa·s]	viscosity, 298.15 K [mPa·s]
x1 = 0.0126	802.92 ± 0.24	798.92 ± 0.24	2.139 ± 0.088	1.886 ± 0.077
x1 = 0.0219	802.2 ± 0.24	798.21 ± 0.24	2.069 ± 0.085	1.832 ± 0.075
x1 = 0.0298	801.64 ± 0.24	797.61 ± 0.24	2.014 ± 0.082	1.79 ± 0.073
x1 = 0.0403	800.81 ± 0.24	796.7 ± 0.24	1.948 ± 0.08	1.735 ± 0.071
x1 = 0.05	800.12 ± 0.24	796.03 ± 0.24	1.885 ± 0.077	1.683 ± 0.069
x1 = 0.0599	799.4 ± 0.24	795.34 ± 0.24	1.835 ± 0.075	1.635 ± 0.067
x1 = 0.0699	798.72 ± 0.24	794.62 ± 0.24	1.78 ± 0.072	1.589 ± 0.065
x1 = 0.0798	798.25 ± 0.24	794.12 ± 0.24	1.736 ± 0.071	1.552 ± 0.063
x1 = 0.09	797.26 ± 0.24	793.05 ± 0.24	1.67 ± 0.068	1.492 ± 0.061
x1 = 0.1003	796.41 ± 0.24	792.28 ± 0.24	1.627 ± 0.066	1.459 ± 0.059
x1 = 0.1495	793.03 ± 0.24	788.85 ± 0.24	1.412 ± 0.058	1.275 ± 0.052
x1 = 0.1999	789.56 ± 0.24	785.28 ± 0.24	1.234 ± 0.05	1.119 ± 0.046
x1 = 0.25	786.15 ± 0.24	781.8 ± 0.24	1.089 ± 0.044	0.9917 ± 0.041
x1 = 0.3003	782.74 ± 0.24	778.33 ± 0.24	0.9663 ± 0.04	0.8841 ± 0.036
x1 = 0.35	779.47 ± 0.24	774.99 ± 0.24	0.8694 ± 0.036	0.7946 ± 0.032
x1 = 0.4015	776.15 ± 0.24	771.6 ± 0.24	0.7809 ± 0.032	0.721 ± 0.029
x1 = 0.4585	772.51 ± 0.24	767.88 ± 0.24	0.6993 ± 0.029	0.6452 ± 0.026
x1 = 0.5002	769.91 ± 0.24	765.22 ± 0.24	0.6508 ± 0.027	0.6047 ± 0.025
x1 = 0.5505	766.88 ± 0.24	762.1 ± 0.24	0.5953 ± 0.025	0.5528 ± 0.023
x1 = 0.5994	763.94 ± 0.24	759.14 ± 0.24	0.5508 ± 0.023	0.52 ± 0.022
x1 = 0.6475	761.06 ± 0.24	756.21 ± 0.24	0.5181 ± 0.021	0.4813 ± 0.02
x1 = 0.7026	757.85 ± 0.24	752.93 ± 0.24	0.4767 ± 0.02	0.4449 ± 0.018
x1 = 0.7536	754.92 ± 0.24	749.92 ± 0.24	0.4509 ± 0.019	0.4165 ± 0.017
x1 = 0.8033	752.01 ± 0.24	747.01 ± 0.24	0.4202 ± 0.017	0.3922 ± 0.016
x1 = 0.8471	749.51 ± 0.24	744.41 ± 0.24	0.4014 ± 0.017	0.375 ± 0.016
x1 = 0.9007	746.4 ± 0.24	741.27 ± 0.24	0.3802 ± 0.016	0.3537 ± 0.015
x1 = 0.9107	745.77 ± 0.24	740.64 ± 0.24	0.3705 ± 0.016	0.3499 ± 0.015
x1 = 0.9185	745.32 ± 0.24	740.18 ± 0.24	0.3679 ± 0.015	0.3536 ± 0.015
x1 = 0.9282	744.76 ± 0.24	739.61 ± 0.24	0.3645 ± 0.015	0.3411 ± 0.014
x1 = 0.94	744.07 ± 0.24	738.91 ± 0.24	0.3597 ± 0.015	0.3383 ± 0.014
x1 = 0.9493	743.55 ± 0.24	738.35 ± 0.24	0.3573 ± 0.015	0.3241 ± 0.014
x1 = 0.9599	742.94 ± 0.24	737.74 ± 0.24	0.3554 ± 0.015	0.3246 ± 0.014
x1 = 0.9698	742.37 ± 0.24	737.19 ± 0.24	0.349 ± 0.015	0.329 ± 0.014
x1 = 0.9796	741.82 ± 0.24	736.64 ± 0.24	0.3454 ± 0.015	0.3252 ± 0.014
x1 = 0.9882	741.32 ± 0.24	736.14 ± 0.24	0.344 ± 0.015	0.3242 ± 0.014
